Publication PMC5394417, “Investigating the molecular mechanism of positive and negative allosteric modulators in the calcium-sensing receptor dimer” (Scientific Reports, 2017)

Tests used:
Type in all cases: cell-based
[1] = target: T1, HA-CaSR WT (Rattus norvegicus, UniProt P48442); assay: IP-One assay (IP1 accumulation, Gq signaling), HEK293T transiently transfected
T1 construct: mGluR5 signal peptide (N); expressed in transfected cells; host or cells: HEK293T
T1 sequence (P48442 20-1079): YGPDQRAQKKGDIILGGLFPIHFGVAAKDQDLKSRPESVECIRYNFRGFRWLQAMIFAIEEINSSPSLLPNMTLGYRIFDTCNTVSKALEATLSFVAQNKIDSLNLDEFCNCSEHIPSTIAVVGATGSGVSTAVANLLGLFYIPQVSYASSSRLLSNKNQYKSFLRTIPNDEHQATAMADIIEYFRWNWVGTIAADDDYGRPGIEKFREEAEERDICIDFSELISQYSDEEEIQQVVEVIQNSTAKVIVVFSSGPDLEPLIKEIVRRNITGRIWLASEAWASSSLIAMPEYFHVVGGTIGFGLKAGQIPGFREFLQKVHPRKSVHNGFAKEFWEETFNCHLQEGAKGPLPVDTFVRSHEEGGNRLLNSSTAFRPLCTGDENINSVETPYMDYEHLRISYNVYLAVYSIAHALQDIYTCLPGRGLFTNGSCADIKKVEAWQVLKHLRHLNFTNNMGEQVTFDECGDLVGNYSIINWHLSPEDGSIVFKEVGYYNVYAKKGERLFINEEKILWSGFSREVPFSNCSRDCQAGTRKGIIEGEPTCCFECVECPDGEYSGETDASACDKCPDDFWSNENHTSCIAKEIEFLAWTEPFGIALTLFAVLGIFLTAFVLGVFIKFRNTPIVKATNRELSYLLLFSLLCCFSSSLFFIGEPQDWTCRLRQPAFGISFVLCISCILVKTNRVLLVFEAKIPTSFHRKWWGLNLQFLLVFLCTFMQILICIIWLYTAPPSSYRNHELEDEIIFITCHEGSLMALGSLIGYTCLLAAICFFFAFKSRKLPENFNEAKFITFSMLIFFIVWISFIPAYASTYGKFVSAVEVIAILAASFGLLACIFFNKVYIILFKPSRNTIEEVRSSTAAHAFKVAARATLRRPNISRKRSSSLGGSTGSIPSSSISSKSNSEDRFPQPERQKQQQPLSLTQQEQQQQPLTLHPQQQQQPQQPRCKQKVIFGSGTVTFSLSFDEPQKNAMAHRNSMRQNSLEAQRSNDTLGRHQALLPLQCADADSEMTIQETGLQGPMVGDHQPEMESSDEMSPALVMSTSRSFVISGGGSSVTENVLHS
Experimental: (§1) Human embryonic kidney (HEK) 293T cells were cultured in DMEM supplemented with 10% dFBS and 1% P/S at 37 °C and 5% CO2. 48 h prior to assay, transient transfection was performed using Lipofectamine 2000 as the transfection reagent. White opaque 96-well culture plates (PerkinElmer, Waltham, MA, USA) were used for the ELISA and the TR-FRET dimerization assay, while clear tissue culture treated 96-well plates (Corning, Corning, NY, USA) were used for the IP-One assay. Both plate types were coated with poly-D-lysine before addition of cells and transfection mix. 0.25 μl/well of Lipofectamine 2000 were diluted in 25 μl/well of Opti-MEM and incubated at room temperature (RT) for 5 min. 0.03 μg/well of DNA was diluted in 25 μl/well of Opti-MEM, and subsequently mixed with the Lipofectamine 2000 dilution and incubated 20 min at RT before addition to the plates. Cell suspensions of 170.000 HEK293T cells/mL were prepared in complete growth medium and 100 μl/well (17.000 cells/well) was added to the plates, which were incubated for 48 h at 37 °C and 5% CO2 before performing assays.
(§2) Functional activity was measured using the IP-One assay, which is an IP1 accumulation assay. For agonist testing, ligands were prepared in final concentrations in ligand buffer (HBSS, 20 mM HEPES, pH 7.4 supplemented with 20 mM LiCl). Cells were washed once with 100 μl/well of assay buffer (HBSS, 20 mM HEPES, pH 7.4) and 50 μl/well of agonist solution was added after which plates were incubated at 37 °C for 30 min. Subsequently, ligand solutions were removed and cells were washed with 100 μl/well of assay buffer. Cell lysis was performed by addition of 30 μl/well of IP-One Conjugate & Lysis Buffer (Cisbio Bioassays, Codolet, France) and plates were incubated at RT for 30 min. Afterwards, 30 μl/well of assay buffer was added to dilute the cell lysate. 10 μl/well of cell lysate was transferred from the 96-well plate to a 384-well Optiplate and 10 μl/well of detection solution (Assay buffer + 2.5% of anti-IP1 antibody cryptate Terbium conjugate + 2.5% IP1-d2 conjugate (Cisbio Bioassays, Codolet, France)) was also added. The 384-well plate was incubated for 1 h at RT in dark before being measured on an EnVision plate reader (PerkinElmer, Waltham, MA, USA). Upon excitation at 340 nm, emission at 615 nm and 665 nm was measured, and the FRET ratio (665 nm/615 nm) was converted to IP1 concentrations by interpolating values from an IP1 standard curve generated from a provided IP1 calibrator (Cisbio Bioassays, Codolet, France). When testing allosteric modulators, cells were pre-incubated for 30 min at 37 °C with 50 μl/well of ligand buffer supplemented with allosteric modulator and a final concentration of 1% DMSO. Afterwards, the buffer solution was removed and 50 μl/well of agonist solution in ligand buffer supplemented with allosteric modulator and a final concentration of 1% DMSO was added. Plates were incubated for 30 min at 37 °C followed by one wash in 100 μl/well of assay buffer. Cell lysis and detection was performed as described above.

[2] = target: T2, HA-CaSR WT + myc CaSR-WT (Rattus norvegicus, UniProt P48442); assay: IP-One assay, co-expression 1:1 in HEK293T
T2 construct: mGluR5 signal peptide (N); expressed in transfected cells; host or cells: HEK293T
T2 sequence (P48442 20-1079) 1: T1 sequence (P48442 20-1079)
T2 sequence (P48442 20-1079) 2: T1 sequence (P48442 20-1079)
Experimental: as §1
as §2, with “Afterwards, the buffer solution was removed and 50 μl/well of agonist solution in ligand buffer supplemented with allosteric modulator and a final concentration of 1% DMSO was added. Plates were incubated for 30 min at 37 °C followed by one wash in 100 μl/well of assay buffer. Cell lysis and detection was performed as described above.” left out

[3] = target: T3, myc-CaSR-F801A (Rattus norvegicus, UniProt P48442, F801A); assay: IP-One assay, co-expression with pEGFPN1 in HEK293T; conditions: concentrations up to 45 mM Ca^2+
T3 construct: mGluR5 signal peptide (N); expressed in transfected cells; host or cells: HEK293T
T3 sequence (P48442 20-1079 F801A): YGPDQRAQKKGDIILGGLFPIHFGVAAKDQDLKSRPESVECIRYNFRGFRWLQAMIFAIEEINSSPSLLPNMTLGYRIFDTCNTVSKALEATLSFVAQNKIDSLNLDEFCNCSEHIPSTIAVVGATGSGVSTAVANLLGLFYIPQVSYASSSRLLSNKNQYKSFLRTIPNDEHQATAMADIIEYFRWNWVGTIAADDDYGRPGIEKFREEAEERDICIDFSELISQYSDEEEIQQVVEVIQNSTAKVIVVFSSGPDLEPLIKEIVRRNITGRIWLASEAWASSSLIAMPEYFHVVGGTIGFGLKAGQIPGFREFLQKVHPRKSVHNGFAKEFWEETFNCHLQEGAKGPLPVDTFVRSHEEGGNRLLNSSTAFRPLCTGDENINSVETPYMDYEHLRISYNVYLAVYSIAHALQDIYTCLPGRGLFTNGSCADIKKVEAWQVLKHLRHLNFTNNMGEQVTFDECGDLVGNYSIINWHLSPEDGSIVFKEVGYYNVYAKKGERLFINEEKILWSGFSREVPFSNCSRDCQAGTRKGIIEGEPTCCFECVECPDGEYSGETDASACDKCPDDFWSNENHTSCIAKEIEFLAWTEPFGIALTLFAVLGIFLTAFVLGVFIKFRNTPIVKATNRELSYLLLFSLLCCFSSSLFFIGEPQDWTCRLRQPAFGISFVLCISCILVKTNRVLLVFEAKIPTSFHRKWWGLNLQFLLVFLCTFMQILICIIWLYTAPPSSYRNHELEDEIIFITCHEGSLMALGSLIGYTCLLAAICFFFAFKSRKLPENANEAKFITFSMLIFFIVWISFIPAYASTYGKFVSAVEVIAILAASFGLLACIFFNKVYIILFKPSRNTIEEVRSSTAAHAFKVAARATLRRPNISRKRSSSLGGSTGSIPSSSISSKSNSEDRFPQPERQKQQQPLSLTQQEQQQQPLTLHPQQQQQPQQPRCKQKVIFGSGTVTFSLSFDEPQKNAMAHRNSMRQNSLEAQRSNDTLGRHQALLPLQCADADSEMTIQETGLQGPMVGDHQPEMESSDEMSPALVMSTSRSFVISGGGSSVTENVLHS
Experimental: as §1, with “Cell suspensions of 170.000 HEK293T cells/mL were prepared in complete growth medium and 100 μl/well (17.000 cells/well) was added to the plates, which were incubated for 48 h at 37 °C and 5% CO2 before performing assays.” left out
Functional activity was measured using the IP-One assay, which is an IP1 accumulation assay. […] The 384-well plate was incubated for 1 h at RT in dark before being measured on an EnVision plate reader (PerkinElmer, Waltham, MA, USA). Upon excitation at 340 nm, emission at 615 nm and 665 nm was measured, and the FRET ratio (665 nm/615 nm) was converted to IP1 concentrations by interpolating values from an IP1 standard curve generated from a provided IP1 calibrator (Cisbio Bioassays, Codolet, France). […]

EC50 ([1]; Ca^2+ alone, Table 1): 3.77 mM
Hill coefficient ± S.E.M. ([1]; Ca^2+ alone, Table 1): 3.62 ± 0.48
pEC50 ± S.E.M. ([1]; Ca^2+ alone, Table 1): 2.42 ± 0.01
EC50 ([1]; Ca^2+ alone, Table 3): 3.21 mM
pEC50 ± S.E.M. ([1]; Ca^2+ alone, Table 3): 2.49 ± 0.01
Max ± S.E.M. ([1]; Ca^2+ alone, normalized to maximum response of WT CaSR, Table 3): ≈100%
EC50 ([1]; Ca^2+ with 1 μM NPS R-568): 1.28 mM
pEC50 ± S.E.M. ([1]; Ca^2+ with 1 μM NPS R-568): 2.89 ± 0.01
Max ± S.E.M. ([1]; Ca^2+ with 1 μM NPS R-568, normalized to maximum response with Ca^2+ alone for the construct): 110 ± 11%
EC50 ([1]; Ca^2+ with 5 μM NPS 2143): 8.4 mM
pEC50 ± S.E.M. ([1]; Ca^2+ with 5 μM NPS 2143): 2.08 ± 0.01
Max ± S.E.M. ([1]; Ca^2+ with 5 μM NPS 2143, normalized to maximum response with Ca^2+ alone for the construct): 72 ± 5.6%
Max ± S.E.M. ([1]; normalized to maximum response of WT CaSR, Table 1): 100%
EC50 ([2]; Ca^2+ alone): 2.98 mM
Hill coefficient ± S.E.M. ([2]; Ca^2+ alone): 4.24 ± 0.19
pEC50 ± S.E.M. ([2]; Ca^2+ alone): 2.53 ± 0.02
Max ± S.E.M. ([2]; normalized to maximum response of WT CaSR): 100%
functional response to Ca^2+ [3]: non-functional
SMILES: [Ca+2] [Ca^2+]
